Measurements: US20150011751A1, “NOVEL TRIAZINE DERIVATIVE” (CARNA BIOSCIENCES, INC., priority 2012, published 2015)

The compounds below were run against Dephosphorylated BTK (Homo sapiens, UniProt Q06187) (assay: Test of activity inhibition against dephosphorylated BTK (mobility shift assay)).
Chain of Dephosphorylated BTK (Q06187 whole entry): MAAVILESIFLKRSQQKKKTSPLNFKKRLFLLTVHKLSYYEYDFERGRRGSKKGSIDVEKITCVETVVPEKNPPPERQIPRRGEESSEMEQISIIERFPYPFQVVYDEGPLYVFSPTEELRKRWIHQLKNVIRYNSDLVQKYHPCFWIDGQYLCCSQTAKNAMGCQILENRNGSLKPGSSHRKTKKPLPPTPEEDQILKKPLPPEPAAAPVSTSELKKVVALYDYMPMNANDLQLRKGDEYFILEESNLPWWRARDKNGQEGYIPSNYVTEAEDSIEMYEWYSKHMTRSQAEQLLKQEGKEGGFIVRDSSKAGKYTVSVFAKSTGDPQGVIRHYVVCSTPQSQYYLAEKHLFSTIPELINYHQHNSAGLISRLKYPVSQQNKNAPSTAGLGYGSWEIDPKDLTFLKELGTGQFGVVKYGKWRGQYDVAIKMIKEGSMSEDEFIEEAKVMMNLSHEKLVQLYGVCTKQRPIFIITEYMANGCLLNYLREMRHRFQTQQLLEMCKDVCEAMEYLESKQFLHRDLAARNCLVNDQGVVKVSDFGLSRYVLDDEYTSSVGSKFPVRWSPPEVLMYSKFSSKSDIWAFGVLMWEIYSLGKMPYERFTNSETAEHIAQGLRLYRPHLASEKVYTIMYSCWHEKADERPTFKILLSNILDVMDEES

IC50 [nM] | Structure (SMILES)
0.7 | COCCOc1ccc(Nc2nc(N)nc(-c3cccc(NC(=O)c4ccc(C(C)(C)C)cc4)c3CO)n2)cc1 [Example 74, N-[3-(4-Amino-6-{[4-(2-methoxyethoxy)phenyl]amino}-1,3,5-triazin-2-yl)-2-(hydroxymeth-yl)phenyl]-4-(tert-butyl) benzamide]
3.4 | CC(C)(C)c1cc2c(s1)C(=O)N(c1cccc(-c3nc(N)nc(Nc4ccc(CN5CCOCC5)cc4)n3)c1CO)C2 [Example 77, 5-[3-(4-Amino-6-{[4-(morpho-linomethyl)phe-nyl]amino}-1,3,5-triazin-2-yl)-2-(hydroxymeth-yl)phenyl]-2-(tert-butyl)-4H-thieno[2,3-c]pyrrol-6(5H)-one]
1.2 | CC(C)(C)c1ccc(C(=O)Nc2cccc(-c3nc(N)nc(Nc4ccc(OCCN5CCOCC5)cc4)n3)c2CO)cc1 [Example 78, N-[3-(4-Amino-6-{[4-(2-morpholinoethoxy)phe-nyl]amino}-1,3,5-tri-azin-2-yl)-2-(hydroxy-methyl)phenyl]-4-(tert-butyl)benzamide]
0.6 | CC(C)(C)c1ccc(C(=O)Nc2cccc(-c3nc(N)nc(Nc4ccc(CN5CCOCC5)cc4)n3)c2CO)cc1 [Example 79, N-[3-(4-Amino-6-{[4-(morpho-linomethyl)phe-nyl]amino}-1,3,5-triazin-2-yl)-2-(hydroxymeth-yl)phenyl]-4-(tert-butyl)benzamide]
2.1 | Cc1c(NC(=O)c2ccc(C(C)(C)C)cc2)cccc1-c1nc(N)nc(Nc2ccc(N3CCC(N4CCOCC4)CC3)cc2)n1 [Example 80, N-[3-(4-Amino-6-{[4-(4-morpholinopiperidin-1-yl)phenyl]amino}-1,3,5-triazin-2-yl)-2-methylphenyl]-4-(tert-butyl)benzamide]
2.2 | Cc1c(NC(=O)c2ccc(C(C)(C)C)cc2)cccc1-c1nc(N)nc(Nc2ccc(N3CCCC(O)C3)cc2)n1 (centres unmarked) [Example 81, N-[3-(4-Amino-6-{[4-(3-hydroxypiperidin-1-yl)phenyl]amino}-1,3,5-triazin-2-yl)-2-meth-ylphenyl]-4-(tert-bu-tyl)benzamide]
1.8 | CN1CCN(C)C(c2ccc(Nc3nc(N)nc(-c4cccc(N5Cc6cc(C(C)(C)C)sc6C5=O)c4CO)n3)cc2)C1=O (centres unmarked) [Example 83, 5-[3-(4-Amino-6-{[4-(1,4-dimethyl-3-oxo-piperazin-2-yl)phenyl]ami-no}-1,3,5-triazin-2-yl)-2-(hydroxymethyl)phenyl]-2-(tert-butyl)-4H-thieno[2,3-c]pyr-rol-6(5H)-one]
5.8 | Cc1c(NC(=O)c2ccc(C(C)(C)C)cc2)cccc1-c1nc(N)nc(Nc2ccc(N3C[C@@H](C)O[C@@H](C)C3)cc2)n1 [Example 85, N-[3-(4-Amino-6-{[4-((2S, 6R)-2,6-dimethyl-morpholino)phenyl]ami-no}-1,3,5-triazin-2-yl)-2-methylphenyl]-4-(tert-butyl)benzamide]
4 | Cc1c(NC(=O)c2ccc(C(C)(C)C)cc2)cccc1-c1nc(N)nc(Nc2ccc(N3CCCOCC3)cc2)n1 [Example 86, N-[3-(4-{[4-(1,4-Oxaze-pan-4-yl)phenyl]amino}-6-amino-1,3,5-tria-zin-2-yl)-2-methyl-phenyl]-4-(tert-butyl)benzamide]
1.4 | Cc1c(NC(=O)c2ccc(C(C)(C)C)cc2)cccc1-c1nc(N)nc(Nc2ccc(N3CCC(O)CC3)cc2)n1 [Example 87, N-[3-(4-Amino-6-{[4-(4-hydroxypiperidin-1-yl)phenyl]amino}-1,3,5-triazin-2-yl)-2-meth-ylphenyl]-4-(tert-butyl)benzamide]
1.8 | Cc1c(NC(=O)c2ccc(C(C)(C)C)cc2)cccc1-c1nc(N)nc(Nc2ccc(N3CCNCC3)cc2)n1 [Example 88, N-[3-(4-Amino-6-{[4-(piperazin-1-yl)phenyl]amino}-1,3,5-triazin-2-yl)-2-methylphenyl]-4-(tert-butyl)benza-mide]
0.6 | CN1CCN(C)C(c2ccc(Nc3nc(N)nc(-c4cccc(NC(=O)c5ccc(C(C)(C)C)cc5)c4CO)n3)cc2)C1=O (centres unmarked) [Example 89, N-[3-(4-Amino-6-{[4-(1,4-dimethyl-3-oxo-piperazin-2-yl)phenyl]ami-no}-1,3,5-triazin-2-yl)-2-(hydroxymethyl)phenyl]-4-(tert-butyl) benzamide]
0.7 | COCCOc1ccc(Nc2nc(N)nc(-c3cccc(NC(=O)c4ccc(C(C)(C)C)cc4)c3CO)n2)cc1OCCOC [Example 90, N-[3-(4-Amino-6-{[3,4-bis(2-methoxyethoxy)phenyl]amino}-1,3,5-tri-azin-2-yl)-2-(hydroxy-methyl)phenyl]-4-(tert-butyl)benzamide]
1.1 | COc1cc(Nc2nc(N)nc(-c3cccc(NC(=O)c4ccc(C(C)(C)C)cc4)c3CO)n2)cc(OC)c1OC [Example 91, N-(3-{4-Amino-6-[(3,4,5-trimethoxyphenyl)ami-no]-1,3,5-triazin-2-yl}-2-(hydroxymethyl)phenyl)-4-(tert-butyl) benzamide]
0.9 | Cc1c(NC(=O)c2ccc(C(C)(C)C)cc2)cccc1-c1nc(N)nc(Nc2ccc(N3CCOC(CO)C3)cc2)n1 (centres unmarked) [Example 92, N-{3-[4-Amino-6-({4-[2-(hydroxymethyl)morpho-lin]phenyl}amino)-1,3,5-triazin-2-yl]-2-methylphenyl}-4-(tert-butyl)benzamide]
1.3 | Cc1c(NC(=O)c2ccc(C(C)(C)C)cc2)cccc1-c1nc(N)nc(Nc2ccc(N3CCN(CCO)CC3)cc2)n1 [Example 93, N-{3-[4-Amino-6-({4-[4-(2-hydroxyethyl)piperazin-1-yl]phenyl}ami-no)-1,3,5-triazin-2-yl]-2-methylphenyl}-4-(tert-butyl)benzamide]
0.4 | CC(C)(C)c1ccc(C(=O)Nc2cccc(-c3nc(N)nc(Nc4ccc(CN5CCC(O)CC5)cc4)n3)c2CO)cc1 [Example 94, N-{3-[4-Amino-6-({4-[(4-hydroxypiperidin-1-yl)methyl]phenyl}ami-no)-1,3,5-triazin-2-yl]-2-(hydroxymethyl)phe-nyl}-4-(tert-butyl) benzamide]
7.7 | COc1c(NC(=O)c2ccc(C(C)(C)C)cc2)cccc1-c1nc(N)nc(Nc2ccc(N3CCOCC3)cc2)n1 [Example 96, N-(3-{4-Amino-6-[(4-morpholinophenyl)amino]-1,3,5-triazin-2-yl}-2-methoxyphenyl)-4-(tert-butyl)benzamide]
10.6 | CC(C)(C)c1ccc(C(=O)Nc2cccc(-c3nc(N)nc(Nc4ccc(N5CCOCC5)cn4)n3)c2CO)cc1 [Example 99, N-(3-{4-Amino-6-[(5-morpholinopyridin-2-yl)amino]-1,3,5-triazin-2-yl}-2-(hydroxymeth-yl)phenyl)-4-(tert-butyl)benzamide]
8.7 | Nc1nc(Nc2ccc(N3CCOCC3)cc2)nc(-c2cccc(NC(=O)c3ccc4c(c3)CCCC4)c2CO)n1 [Example 102, N-(3-{4-Amino-6-[(4-morpholinophenyl)amino]-1,3,5-triazin-2-yl}-2-(hydroxymethyl)phe-nyl)-5,6,7,8-tetrahydro-naphthalene-2-carbox-amide]
5 | CC(C)(C)OC(=O)N1CCN(c2ccc(Nc3nc(N)nc(-c4cccc(NC(=O)c5ccc(C(C)(C)C)cc5)c4CO)n3)cc2)CC1 [Example 104, tert-Butyl 4-{4-[(4-amino-6-{3-[4-(tert-butyl)benzamido]-2-(hydroxymethyl)phenyl}-1,3,5-triazin-2-yl)amino]phenyl} piperazine-1-carboxylate]
0.9 | COCCN(CCOC)Cc1ccc(Nc2nc(N)nc(-c3cccc(NC(=O)c4ccc(C(C)(C)C)cc4)c3CO)n2)cc1 [Example 105, N-(3-{4-Amino-6-[(4-{[bis (2-methoxyethyl)ami-no]methyl}phenyl)ami-no)-1,3,5-triazin-2-yl]-2-(hydroxymethyl)phenyl}-4-(tert-butyl) benzamide]
0.7 | CC(C)(C)c1ccc(C(=O)Nc2cccc(-c3nc(N)nc(Nc4ccc(N5CCOC(CO)C5)cc4)n3)c2CO)cc1 (centres unmarked) [Example 106, N-{3-[4-Amino--({4-[2-(hydroxymethyl)morpho-lino]phenyl}amino)-1,3,5-triazin-2-yl]-2-(hydroxymethyl)phenyl}-4-(tert-butyl)benzamide]
0.8 | CC(C)(C)c1ccc(C(=O)Nc2cccc(-c3nc(N)nc(Nc4ccc(N5CCC(O)CC5)cc4)n3)c2CO)cc1 [Example 107, N-[3-(4-Amino-6-{[4-(4-hydroxypiperidin-1-yl)phenyl]amino}-1,3,5-triazin-2-yl)-2-(hy-droxymethyl)phenyl]-4-(tert-butyl)benzamide]
17.9 | CC(=O)OCc1c(NC(=O)c2ccc(C(C)(C)C)cc2)cccc1-c1nc(N)nc(Nc2ccc(O)cc2)n1 [Example 110, 2-{4-Amino-6-[(4-hydroxy-phenyl)amino]-1,3,5-triazin-2-yl}-6-[4-(tert-butyl)benzamido] benzyl acetate]
1 | CC(C)(C)c1ccc(C(=O)Nc2cccc(-c3nc(N)nc(Nc4ccc(CO)cc4)n3)c2CO)cc1 [Example 111, N-[3-(4-Amino-6-{[4-(hydroxymethyl)phenyl]amino}-1,3,5-triazin-2-yl)-2-(hydroxymeth-yl)phenyl]-4-(tert-butyl) benzamide]
1.1 | CC(C)(C)c1ccc(C(=O)Nc2cccc(-c3nc(N)nc(Nc4ccc(NS(C)(=O)=O)cc4)n3)c2CO)cc1 [Example 112, N-[3-(4-Amino-6-{[4-(meth-ylsulfonamido)phe-nyl]amino}-1,3,5-tria-zin-2-yl)-2-(hydroxymeth-yl)phenyl]-4-(tert-butyl)benzamide]
2.6 | CC(C)(C)c1ccc(C(=O)Nc2cccc(-c3nc(N)nc(Nc4ccc(O)c(F)c4)n3)c2CO)cc1 [Example 113, N-(3-{4-Amino-6-[(3-fluoro-4-hydroxyphenyl)amino]-1,3,5-triazin-2-yl}-2-(hydroxymeth-yl)phenyl)-4-(tert-butyl)benzamide]
1 | CC(C)(C)c1ccc(C(=O)Nc2cccc(-c3nc(N)nc(Nc4ccc(N5CCNC(=O)C5)cc4)n3)c2CO)cc1 [Example 114, N-[3-(4-Amino-6-{[4-(3-oxopiperazin-1-yl)phe-nyl]amino}-1,3,5-tri-azin-2-yl)-2-(hydroxy-methyl)phenyl]-4-(tert-butyl)benzamide]
